Experimental data reported in patent US12215106B2, “Pharmaceutical compounds and therapeutic methods” (RUTGERS, THE STATE UNIVERSITY OF NEW JERSEY, priority 2018, dated 2025).
Counter-ions that a name gives are not always drawn. Like-named read-outs stand apart in the source and are kept apart here.

Experiment: Plasma pharmacokinetics and brain distribution after single IV, IP and oral administration
Assay type: in vivo
Method: The objective of this study was to investigate the plasma pharmacokinetics and brain distribution of Compound (14 in male C57BL/6 mice following a single intravenous, intraperitoneal and oral administration. A group of sixty-three male mice were divided into three groups (Group 1: 2 mg/kg/IV; Group 2: 10 mg/kg/IP and Group 3: 10 mg/kg/PO) with each group comprising of twenty-one mice.
Animals in Group 1 were administered intravenously with Compound 15 solution formulation in 5% NMP, 5% Solutol HS-15, 30% PEG-400 and 60% Captisol (20% w/v) at 2 mg/kg dose. […] Considering mortality intravenous dose was reduced to 2 mg/kg.
Animals in Group 2 and 3 were administered with Compound 15 solution formulation in 5% NMP, 5% Solutol HS-15, 30% PEG-400 and 60% Captisol (20% w/v) at a dose of 10 mg/kg by intraperitoneal and oral route respectively.
(§1) Blood samples (approximately 60 μL) were collected under light isoflurane anesthesia from retro orbital plexus from a set of three mice at 0.08, 0.35, 1, 3, 6, 12 and 24 hr. Plasma samples were separated by centrifugation of whole blood and stored below −70±10° C. until bioanalysis. Immediately after collection of blood, brain samples were collected from set of three mice at each time point. Brain samples were homogenized using ice-cold phosphate buffer saline (pH-7.4) in a ratio of 2 (buffer):1(brain); and homogenates were stored below −70±10° C. until analysis. Total homogenate volume was three times the brain weight. All samples were processed for analysis by protein precipitation using acetonitrile and analyzed with fit-for-purpose LC/MS/MS method (LLOQ2.00 ng/mL for plasma and 3.00 ng/g for brain). Pharmacokinetic parameters were calculated using the non-compartmental analysis tool of Phoenix WinNonlin® (Version 7.0). Pharmacokinetic parameters of Compound 15 are summarized below.
The objective of this study was to investigate the plasma pharmacokinetics and brain distribution of Compound 16 in male C57BL/6 mice following a single intravenous, intraperitoneal and oral administration. A group of sixty-three male mice were divided into three groups (Group 1: 10 mg/kg/IV; Group 2: 10 mg/kg/IP and Group 3: 10 mg/kg/PO) with each group comprising of twenty-one mice.
Animals in Group 1 were administered intravenously with Compound 16 solution formulation in 5% NMP, 5% Solutol HS-15 and 90% normal saline at 10 mg/kg dose.
Animals in Group 2 and 3 were administered with Compound 16 solution formulation in 5% NMP, 5% Solutol HS-15 and 90% normal saline at a dose of 10 mg/kg by intraperitoneal and oral route respectively.
as §1, with “(LLOQ—1.00” for “(LLOQ2.00”, “16” for “15”
The objective of this study was to investigate the plasma pharmacokinetics and brain distribution of Compound 17 in male C57BL/6 mice following a single intravenous, intraperitoneal and oral administration. A group of sixty-three male mice were divided into three groups (Group 1: 2 mg/kg/IV; Group 2: 10 mg/kg/IP and Group 3: 10 mg/kg/PO) with each group comprising of twenty-one mice. […]

[1] = male, C57BL/6, mouse, in vivo, iv, 2 mg/kg, Mean brain conc.
[2] = male, C57BL/6, mouse, in vivo, iv, 2 mg/kg, Mean plasma conc.
[3] = male, C57BL/6, mouse, in vivo, iv, 2 mg/kg, Plasma concentration, individual animal
[4] = male, C57BL/6, mouse, in vivo, po, 10 mg/kg
[5] = male, C57BL/6, mouse, in vivo, po, 10 mg/kg, 12 h
[6] = male, C57BL/6, mouse, in vivo, po, 10 mg/kg, 24 h
[7] = male, C57BL/6, mouse, in vivo, po, 10 mg/kg, Brain concentration, individual animal
[8] = male, C57BL/6, mouse, in vivo, po, 10 mg/kg, Mean brain conc.
[9] = male, C57BL/6, mouse, in vivo, po, 10 mg/kg, Mean plasma conc.
[10] = male, C57BL/6, mouse, in vivo, po, 10 mg/kg, Plasma concentration, individual animal
[11] = male, C57BL/6, mouse, plasma, IP 10 mg/kg
[12] = male, C57BL/6, mouse, plasma, IV 2 mg/kg
[13] = male, C57BL/6, mouse, plasma, PO 10 mg/kg

In the case of `[2H]C1([2H])Oc2ccc(Nc3nc(-c4c(C)nc5ccccn45)cs3)cc2O1` [Compound 17, N-(benzo[d][1,3]dioxol-5-yl-2,2-d2)-4-(2-methylimidazo[1,2-c]pyridin-3-yl)thiazol-2-amine hydrochloride], the concentration at 6 h [1] is reported as 0 ng/g, the concentration at 12 h [1] is reported as 0 ng/g and the concentration at 24 h [1] is reported as 0 ng/g. For the same compound, the concentration at 0.08 h [2] was 256 ng/mL, the concentration at 0.35 h [2] was 44.8 ng/mL and the concentration at 1 h [2] was 9.57 ng/mL. For the same compound, the concentration at 3 h [2] was 0 ng/mL, the concentration at 6 h [2] was 0 ng/mL and the concentration at 12 h [2] was 0 ng/mL. The concentration at 24 h [2] was 0 ng/mL, the concentration at 0.08 h [3] was 260 ng/mL and the concentration at 0.35 h [3] was 41.5 ng/mL. The concentration at 3 h [3] was 0 ng/mL, the concentration at 6 h [3] was 0 ng/mL and the concentration at 12 h [3] was 0 ng/mL. The concentration at 24 h [3] was 0 ng/mL, the “Brain concentrations quantifiable up to” value [4] was “up to 6 hr” and the “Plasma concentrations quantifiable up to” value [4] was “up to 6 hr”. The “Brain concentration, individual animal” value [5] was 0.00 ng/g, the “Plasma concentration, individual animal” value [5] was 0.00 ng/mL and the “Brain concentration, individual animal” value [6] was 0.00 ng/g. The “Plasma concentration, individual animal” value [6] was 0.00 ng/mL, the concentration at 0.35 h [7] was 43.6 ng/g and the concentration at 3 h [7] was 28.1 ng/g. For the same compound, the concentration at 12 h [7] was 0 ng/g, the concentration at 24 h [7] was 0 ng/g and the concentration at 0.35 h [8] was 53 ng/g. The concentration at 1 h [8] was 51.9 ng/g, the concentration at 3 h [8] was 20.5 ng/g and the concentration at 6 h [8] was 10.5 ng/g. It also gave a concentration at 12 h [8] of 0 ng/g, a concentration at 24 h [8] of 0 ng/g and a concentration at 0.35 h [9] of 163 ng/mL. The concentration at 1 h [9] was 109 ng/mL, the concentration at 3 h [9] was 63.5 ng/mL and the concentration at 6 h [9] was 45.5 ng/mL. For the same compound, the concentration at 12 h [9] was 0 ng/mL, the concentration at 24 h [9] was 0 ng/mL and the concentration at 3 h [10] was 62.6 ng/mL. For the same compound, the concentration at 12 h [10] was 0 ng/mL, the concentration at 24 h [10] was 0 ng/mL and the concentration at 0.08 h (male, C57BL/6, mouse, in vivo, IP 10 mg/kg, 0.08 hr, read-out: Mean brain conc.) was 288 ng/g. The concentration at 0.08 h (male, C57BL/6, mouse, in vivo, IP 10 mg/kg, 0.08 hr, read-out: Mean plasma conc.) was 469 ng/mL, the Kp at 0.08 h (male, C57BL/6, mouse, in vivo, IV 2 mg/kg, 0.08 hr, read-out: Brain-to-plasma ratio) was 0.18 and the Kp at 0.35 h (male, C57BL/6, mouse, in vivo, IV 2 mg/kg, 0.35 hr, read-out: Brain-to-plasma ratio) was 4.03. The Kp at 1 h (male, C57BL/6, mouse, in vivo, IV 2 mg/kg, 1 hr, read-out: Brain-to-plasma ratio) was 1.45, the concentration at 0.08 h (male, C57BL/6, mouse, in vivo, PO 10 mg/kg, 0.08 hr, read-out: Mean brain conc.) was 67.3 ng/g and the concentration at 0.08 h (male, C57BL/6, mouse, in vivo, PO 10 mg/kg, 0.08 hr, read-out: Mean plasma conc.) was 207 ng/mL. For the same compound, the Cmax (male, C57BL/6, mouse, in vivo, brain, IP 10 mg/kg) was 288 ng/g, the Cmax (male, C57BL/6, mouse, in vivo, brain, PO 10 mg/kg) was 67.3 ng/g and the Cmax (male, C57BL/6, mouse, in vivo, plasma, IP 10 mg/kg) was 469 ng/mL. The Cmax (male, C57BL/6, mouse, in vivo, plasma, PO 10 mg/kg) was 207 ng/mL, the bioavailability (male, C57BL/6, mouse, plasma, po, 10 mg/kg, PO 10 mg/kg, AUClast considered, read-out: Oral bioavailability, % F) was greater than 100% and the bioavailability (male, C57BL/6, mouse, plasma, po, 10 mg/kg, summary data, read-out: Oral bioavailability) was greater than 100%. It also gave a Tmax (male, C57BL/6, mouse, brain, IP 10 mg/kg) of 4.8 min, a Tmax (male, C57BL/6, mouse, brain, PO 10 mg/kg) of 4.8 min and an AUC(0-inf) [11] of 786 ng·h/mL. For the same compound, the AUC(0-t) [11] was 675 ng·h/mL, the Tmax [11] was 4.8 min and the AUC(0-inf) [12] was 88.2 ng·h/mL. The AUC(0-t) [12] was 85.7 ng·h/mL, the clearance (male, C57BL/6, mouse, plasma, IV 2 mg/kg, read-out: CL, plasma clearance) was 378 mL/min/kg and the half-life (male, C57BL/6, mouse, plasma, IV 2 mg/kg, read-out: T1/2, terminal elimination half-life (converted)) was 12.6 min. For the same compound, the Vd (male, C57BL/6, mouse, plasma, IV 2 mg/kg, read-out: Vss) was 4.4 L/kg, the AUC(0-t) [13] was 482 ng·h/mL and the Tmax [13] was 4.8 min. For the same compound, the “mortality immediately after dose administration” value (mouse, in vivo, iv, 10 mg/kg) was “mortality was observed in six animals” and the Oral bioavailability (summary data, hydrochloride) was 112%.
